In patent US20250108064A1, “PHOSPHATE PRODRUGS OF CANNABINOIDS” (priority 2021, published 2025):

Columns and labels:
Type in all cases: in vitro ADME
[1] = Plasma stability (mouse plasma); conditions: read-out: T½ in mouse plasma (converted)
[2] = Simulated Gastric Fluid stability assay; conditions: simulated gastric fluid (SGF) with pepsin, pH 1.2; SGF pH about 1.2 with pepsin, 37° C.; read-out: T½ in SGF (converted)
Description: General Experimental: Simulated Gastric Fluid (SGF) is a pH 1.2 HCl solution with purified pepsin (800-2500 units of activity) (Test Solutions, The United States Pharmacopoeia (USP), 2008). SGF was prepared according to a procedure described in Test Solution—USP and other published articles (Bioorganic Chemistry, 49 (2013), 40-48). Sodium chloride 0.20 g and purified pepsin 0.32 g (Sigma), derived from porcine stomach mucosa with an activity of 800 to 2500 units per mg of protein, were dissolved in 0.70 mL hydrochloric acid and sufficient water to make 100 mL. […] The SGF solution prepared was used for in vitro studies to evaluate the prodrug stability.
At specified time intervals, aliquots (100 μL) were withdrawn and added to pre-cooled 100% acetonitrile (200 μL spiked with ISTD) and mixed well by vortex mixing for 2 min. The mixture was centrifuged at 13000 rpm for 15 min at 4° C.

[3] = Brain homogenate stability assay; conditions: mouse brain homogenate, 37° C.
Text: General Experimental: Purchases were made for DPBS (1X) (Gibco) and Pierce BCA Assay kit for protein quantification (Thermo Fischer). Frozen mouse brain homogenate was provided by Dr. Scott Myers at Emory University School of Medicine (C57BL/6J adult male mice (Jackson Laboratory), 239 days (34 weeks) old). Briefly, each mouse was euthanized via isoflurane overdose and immediately upon cessation of breathing the chest cavity was opened and the left ventricle punctured with a 21G needle, the vena cava was then clipped and the body perfused with cold PBS (pH 7.35) for 2 min. Following, the brain was removed (on ice) and the forebrain separated from the cerebellum. The forebrain wet weight was recorded and placed into 3 mL ice cold HBSS (Hank's Balanced Salt Solution, pH 7.4), and then homogenized for 10 secs at 3/4 max setting. […] The amount of protein in the mouse brain homogenate was quantified using the Pierce BCA assay kit before running the stability assay.
Procedure for Brain Homogenate Stability Assay: 10 mM stock solution was prepared in 100% DMSO for each test compound. […] The supernatant was transferred into the HPLC vials, and measured by LC-MS/MS. Half-life (T1/2) was calculated using the data obtained from LC-MS/MS and by plotting ln (% remaining of the parent prodrug) versus time and performing linear regression to determine slope. […]

[4] = Liver microsome stability assay (MLM); conditions: mouse, mouse liver microsomes, pH 7.4; 3 μM test compound, NADPH; read-out: T 1/2 in MLM
Description: (§1) General Experimental: Human and mouse liver microsomes were purchased from Xenotech at 20 mg/mL. NADPH (Sigma-Aldrich) 10 mM stocks were prepared in deionized water.
Procedure for Liver Microsome Stability Assay: Test compounds and positive controls were dissolved in 100% DMSO to make 10 mM stock solutions. Verapamil (Sigma-Aldrich) and diphenhydramine (Sigma-Aldrich) were used as positive controls for both human liver microsomes (HLM) and mouse liver microsomes (MLM). The 10 mM stock solutions of test and control compounds were further diluted in potassium phosphate buffer (100 mM, pH 7.4) to 500 μM to ensure that the organic solvent content was <0.2%. The liver microsome (HLM or MLM) assay was prepared in a 1.5 mL Eppendorf tube with a final volume of 1100 μL for duplicate runs. Each reaction contained phosphate buffer (928.4 μL), liver microsomes (55 μL), and test compound (6.6 μL of 500 μM), resulting in a final concentration of 3 μM for the test compound. The reaction was initiated with 110 μL of 10 mM NADPH. Aliquots (100 μL) were removed in duplicate at 0, 5, 10, 15, and 30 min and quenched in […] of 100% cold methanol which contained internal standard (ISTD: d5-7-ethoxy coumarin 2 μM). The aliquots were centrifuged at 12,000 g for 5 min, and the supernatant was transferred and placed in an LC-MS vial. Each time point was assessed by LC-MS/MS, and the area under the m/z curve (AUC), based on the MRM transition, was integrated w.r.t the ISTD. Positive controls were conducted at a final volume of 550 μL to enable a single run for each time point. Negative controls in the absence of NADPH were performed with the test and control compounds, respectively, at a final volume of 150 μL and measured at the most prolonged time point. Control compounds were processed and analyzed like test compounds. […] Half-life (T1/2) was calculated using the data obtained from LC-MS/MS and by plotting ln (% remaining of the parent prodrug) versus time and performing linear regression to determine slope. […]

[5] = Liver microsome stability assay (HLM); conditions: human, microsomes, pH 7.4; 3 μM test compound, NADPH; read-out: T½ in HLM
Description: as §1
Procedure for Liver Microsome Stability Assay: Test compounds and positive controls were dissolved in 100% DMSO to make 10 mM stock solutions. Verapamil (Sigma-Aldrich) and diphenhydramine (Sigma-Aldrich) were used as positive controls for both human liver microsomes (HLM) and mouse liver microsomes (MLM). The 10 mM stock solutions of test and control compounds were further diluted in potassium phosphate buffer (100 mM, pH 7.4) to 500 μM to ensure that the organic solvent content was <0.2%. The liver microsome (HLM or MLM) assay was prepared in a 1.5 mL Eppendorf tube with a final volume of 1100 μL for duplicate runs. Each reaction contained phosphate buffer (928.4 μL), liver microsomes (55 μL), and test compound (6.6 μL of 500 μM), resulting in a final concentration of 3 μM for the test compound. The reaction was initiated with 110 μL of 10 mM NADPH. Aliquots (100 μL) were removed in duplicate at 0, 5, 10, 15, and 30 min and quenched in […] of 100% cold methanol which contained internal standard (ISTD: d5-7-ethoxy coumarin 2 μM). The aliquots were centrifuged at 12,000 g for 5 min, and the supernatant was transferred and placed in an LC-MS vial. Each time point was assessed by LC-MS/MS, and the area under the m/z curve (AUC), based on the MRM transition, was integrated w.r.t the ISTD. Positive controls were conducted at a final volume of 550 μL to enable a single run for each time point. Negative controls in the absence of NADPH were performed with the test and control compounds, respectively, at a final volume of 150 μL and measured at the most prolonged time point. Control compounds were processed and analyzed like test compounds. Each time point was run in triplicates on LC-MS/MS followed by in-between blank washes to avoid the carryover and to equilibrate the column. Half-life (T1/2) was calculated using the data obtained from LC-MS/MS and by plotting ln (% remaining of the parent prodrug) versus time and performing linear regression to determine slope. Slope=−k and T1/2=0.693/k for first-order kinetics.

C=C(C)[C@@H]1CCC(C)=C[C@H]1c1c(O)cc(CCCCC)cc1OC(=O)C1(OP(=O)(O)O)CC1.N.N [7b, 1-((((1′R,2′R)-6-hydroxy-5′-methyl-4-pentyl-2′-(prop-1-en-2-yl)-1′,2′,3′,4′-tetrahydro-[1,1′-biphenyl]-2-yl)oxy)carbonyl)cyclopropyl phosphate di-ammonium salt]
half-life [1]: 3.7 h | half-life at 2 mM [2]: > 3 h | brain homogenate stability (metabolism and metabolite formation) [3]: metabolism of compound 7b and formation of CBD | half-life at 3 μM [4]: 0.55 h | half-life [5]: 2.62 h
